Counter-ions that a name gives are not always drawn.
What was measured:
[1] = biological target: T1, histamine H2-receptor (Cavia porcellus, UniProt P47747); test: H2-Blocking activity (isolated guinea pig atrium, chronotropic response to histamine); assay type: cell-based; settings: isolated guinea pig atrium; test drugs 30 min. before 5 x 10^-6M histamine; dose producing 50% blockade of chronotropic response; read-out: 1)H2-bloc-kade guinea pig atrium ED50
T1 construct: The atrium isolated from quinea-pigs was mounted in an organ bath; from tissue; host or cells: isolated guinea pig atrium
T1 sequence (P47747 whole entry): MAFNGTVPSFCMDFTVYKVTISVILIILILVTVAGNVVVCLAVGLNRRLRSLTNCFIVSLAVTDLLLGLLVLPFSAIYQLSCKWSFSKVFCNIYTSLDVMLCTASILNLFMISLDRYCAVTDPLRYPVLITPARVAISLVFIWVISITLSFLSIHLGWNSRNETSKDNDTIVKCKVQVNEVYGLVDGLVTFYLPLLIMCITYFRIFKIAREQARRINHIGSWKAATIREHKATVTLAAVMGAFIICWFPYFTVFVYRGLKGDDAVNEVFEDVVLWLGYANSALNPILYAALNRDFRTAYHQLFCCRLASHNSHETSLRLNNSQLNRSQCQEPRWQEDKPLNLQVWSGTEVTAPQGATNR
Protocol: In addition, the experiments were performed using a known compound, TZU-0460, i. e., N-[3-(3-(1-piperi- dinylmethyl)phenoxy]propyl]acetoxyacetamide hydrochloride shown by the following formula [drawing 9] HC1 disclosed in European Patent No. 24,510. • 1. Experimental procedure • 1) H2-Blocking activity:
The atrium isolated from quinea-pigs was mounted in an organ bath containing Krebs-Henseleit solution gassed with 95% 02 and 5% C02 at 37°C. The spontaneous movement of the atrium was recorded through a strain gauge (Nihon Koden, SB-1T) on a polygraph (Nihon Koden, RM-6200). The tissue was exposed to test drugs 30 min. before treatment with 5 x 10-^6M histamine. The dose of test drugs producing 50%blockade of chronotropic response to histamine was obtained from each preparation.

[2] = tested on: Male Wistar rats; test: Gastric secretion inhibiting activity (pylorus-ligated rat, 4hr. shay rat); assay type: in vivo
Protocol: 2) Gastric secretion inhibiting activity: Male Wistar rats (about 200 g) were fasted but allowed free access to water for 24 hours prior to the experiment. The pylorus was ligated after abdominal midline incision under ether anesthesia. Four hours later, the animals were killed for the collection of gastric juice. The test compounds were given p.o. 1 hour before the pylorus ligation. Gastric juice (0.5 ml) was titrated against 0.05 N NaOH up to pH 7.0 to determine acid concentration using an automatic titrator (Hiranuma Sangyo Co., Comtite 7). The total acid output was calculated as the product of gastric volume by acid concentration.

[3] = tested on: Male Wistar rats; test: Gastric cytoprotection (ethanol ulcer rat); assay type: in vivo
Protocol: 3) Gastric cytoprotection: Male Wistar rats (about 200 […]) were starved for 24 hours and deprived of water for 18 hours prior to the experiment. Absolute ethanol (1 ml/rat) was given orally to rats one hour after p.o. administration of the test compounds. One hour later, animals were sacrificed for the measurement of gastric lesions (mm^2).

[4] = Acute toxicity LD50 iv; settings: in vivo, species not given
[5] = Rattus norvegicus, po, 4 h; p.o. 1 hour before pylorus ligation; gastric juice collected four hours later; total acid output; read-out: 2)Anti-secretion 4hr. shay rat ED50 (mg/kg p.o.)
[6] = po, 1 h, p.o., absolute ethanol (1 ml/rat) orally one hour after test compound; gastric lesions measured one hour later; read-out: 3)Cytopro-tection ethanol ulcer rat ED50(mg/kg p.o.)

Row | SMILES | IC50 [1] [nM] | ED50 [2, 5] [mg/kg] | ED50 [3, 6] [mg/kg] | LD50 [4] [mg/kg] | ED50 ([2]; Rattus norvegicus, po, 4 h, read-out: 2)Anti-secretion 4hr. shay rat ED50 (mg/kg p.o.)) [mg/kg] | ED50 ([3]; Rattus norvegicus, po, 1 h, read-out: 3)Cytopro-tection ethanol ulcer rat ED50(mg/kg p.o.)) [mg/kg]
1 | CCSCCc1c(C)[nH]c(NCCCOc2cccc(CN3CCCCC3)c2)nc1=O [Example 15, 5-(2-Ethylthioethyl)-6-methyl-2-[3-[m-(piperidinomethyl)phenoxy]propylamino]-4(lH)-pyrimidone] | 400 | 10.9 | 25.4 |  |  | 
2 | CCCc1c(C)[nH]c(NCCCOc2cccc(CN3CCCCC3)c2)nc1=O [Example 7, 6-Methyl-2-[3-[m-(piperidinomethyl)phenoxy]propylamino]-5-propyl-4(lH)-pyrimidone] | 510 | 6.1 | 6.6 |  |  | 
3 | CC=CCc1c(C)[nH]c(NCCCOc2cccc(CN3CCCC3)c2)nc1=O [Example 14, 5-(2-Butenyl)-6-methyl-2-[3-[m-(pyrrolidinylmethyl)-phenoxy]propylamino]-4(1H)-pyrimidone] | 820 | 9.9 | 41.4 |  |  | 
4 | C=C(C)Cc1c(C)[nH]c(NCCCOc2cccc(CN3CCCC(C)C3)c2)nc1=O (centres unmarked) [Example 31, 6-Methyl-2-[3-[m-(3-methylpiperidinomethyl)pheno- : xy]propylamino]-5-(2-methyl-2-propenyl)-4(lH)-pyrimidone] | 290 | 30.1 | 13.6 |  |  | 
5 | CC=CCc1c(C)[nH]c(NCCCOc2cccc(CN3CCCC(C)C3)c2)nc1=O (centres unmarked) [Example 12, 5-(2-Butenyl)-6-methyl-2-[3-[m-(3-methylpiperidino-methyl)phenoxy]propylamino]-4(1H)-pyrimidone] | 610 | 16.4 | 6.7 | 42.5 |  | 
6 | C=CCc1c(C)[nH]c(NCCCOc2cccc(CN3CCCC(C)C3)c2)nc1=O (centres unmarked) [Example 30, 5-(2-Propenyl)-6-me thyl-2-[3-[m-(3-methylpiperidi-nomethyl)phenoxy]propylamino]-4(lH)-pyrimidone] | 170 | 18 | 17 |  |  | 
7 | CC(=O)OCC(=O)NCCCOc1cccc(CN2CCCCC2)c1 [TZU-0460, N-[3-(3-(1-piperi-dinylmethyl)phenoxy]propyl]acetoxyacetamide hydrochloride, reference compound] | 370 |  |  |  | 35.1 | 46.4
8 | CCCCc1c(C)[nH]c(NCCCOc2cccc(CN3CCCCC3)c2)nc1=O [Example 4, 5-butyl-6-methyl-2-L3-[m-(piperidinomethyl)phenoxy]propylamino]-4(1H)-pyrimidone dihydrochloride] | 420 | 6.4 | 5.8 | 61.1 |  | 
9 | CC(C)=CCc1c(C)[nH]c(NCCCOc2cccc(CN3CCCCC3)c2)nc1=O [Example 26, 6-methyl-5-(3-methyl-2-butenyl)-2-[3-[m-(piperidinomethyl)phenoxy]propylamino]-4(1H)-pyrimidone] | 360 | 5.2 | 20.5 |  |  | 
10 | CCCCCCCc1c(C)[nH]c(NCCCOc2cccc(CN3CCCCC3)c2)nc1=O [Example 1, 5-heptyl-6-methyl-2-[3-[m-(piperidinomethyl)phenoxy]-propylamino]-4(lH)-pyrimidone di-hydrochloride] | > 1000 | 2.6 | 6 |  |  | 
11 | C#CCc1c(C)[nH]c(NCCCOc2cccc(CN3CCCCC3)c2)nc1=O [Example 9] | 210 | 3.1 | 23.3 |  |  | 
12 | CCCCCc1c(CC)[nH]c(NCCCOc2cccc(CN3CCCCC3)c2)nc1=O [Example 5, 6-Ethyl-5-pentyl-2-f3-[m-(piperidinomethyl)phenoxy]-propylamino]-4(lH)-pyrimidone dihydrochloride-dihydrate] | 8900 | 19 | 9.6 |  |  | 

— patent EP0186275A2, “2-Substituted amino-4(1H)-pyrimidone derivatives, their production, and medical compositions containing them” (YAMANOUCHI PHARMACEUTICAL CO. LTD., priority 1984, dated 1986)
